Data taken from US5935824A, “Protein expression system” (Technologene, Inc., priority 1996, dated 1999).
Values belong to the compound of their own block, whether it stands above or below them. Residues, ends and D or L forms follow the SMILES beside them. *: point of attachment. Cbz = O=C(OCc1ccccc1)*

Target: T1, carboxypeptidase Y (CPD-Y) immobilized to Acti-Disk (Saccharomyces cerevisiae, UniProt P00729)
T1 construct: purchased Sigma
T1 sequence (P00729 112-532): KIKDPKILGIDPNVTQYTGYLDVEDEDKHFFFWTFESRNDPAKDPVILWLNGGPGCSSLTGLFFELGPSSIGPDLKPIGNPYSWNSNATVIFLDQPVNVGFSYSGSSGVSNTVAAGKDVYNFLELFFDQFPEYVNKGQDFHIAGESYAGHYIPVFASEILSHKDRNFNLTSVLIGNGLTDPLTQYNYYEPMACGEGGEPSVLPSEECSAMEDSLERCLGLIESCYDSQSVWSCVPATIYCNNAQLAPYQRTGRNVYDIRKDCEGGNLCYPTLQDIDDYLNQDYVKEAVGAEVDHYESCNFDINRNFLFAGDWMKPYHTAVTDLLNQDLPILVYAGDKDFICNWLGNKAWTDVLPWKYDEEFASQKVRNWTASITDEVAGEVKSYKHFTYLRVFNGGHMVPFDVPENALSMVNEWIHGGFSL
Assay: Flow digestion of N-CBZ-peptides through CPD-Y Acti Disk, ninhydrin assays
Format: biochemical, yeast
Procedure: The reported Km values for CPD-Y have been generated using extremely low enzyme concentration compared to substrate concentration. The value for Km represents the concentration of substrate that will produce 1/2 the maximum velocity for the initial reaction rates. During the testing of the immobilized CPD-Y enzyme disks with various dipeptide substrates, the maximum flow rate that can be achieved without any substantial increase in the pressure of the solution, is 4 ml/min. At this flow rate, the substrate remains within the immobilized enzyme matrix for 1.74 seconds. This value is determined by dividing the internal porous volume of the matrix to which the enzyme is immobilized (115 μL/4000 μL, min^-1). Due to the high concentration of enzyme (565 μM) within the limited volume of the immobilization matrix (115 μl) a very high percentage of the substrate was hydrolyzed even at these short incubation times which prevents the accurate determination of actual Km values for the individual substrates.
Standard ninhydrin assay: Hydrolysis of the non-proline containing N-CBZ-dipeptides was determined by assaying the amount of free amino acid released by a colorometric ninhydrin reaction at a pH greater than 5.2. One gram of ninhydrin was dissolved in 50 ml ethylene glycol monomethyl ether containing 0.03% ascorbic acid. This ninhydrin solution was made fresh daily. A 0.4 M Citrate buffer, pH 5.2 was made by adjusting the pH of ACS grade citric acid with NaOH. Two hundred microliter samples at pH greater than 5.2 were mixed with an equal volume of ninhydrin reagent and incubated at 100° C. for 20 minutes. When 200 μl samples below pH 5.2 were to be assayed, 100 μl of 0.4 M Citrate buffer was included prior to heating the sample to 100° C. Samples were then cooled to room temperature and 600 μl of 60% ethanol was added as the diluent and the absorbance was read at 570 nm on a Beckman DU 7000 spectrophotometer.
Proline ninhydrin assay: Hydrolysis of proline-containing N-CBZ-dipeptides were measured with a modified version of the assay described by Magne and Larher [Anal. Biochem., 200:115 (1982)]. Briefly a ninhydrin reagent containing 2% ninhydrin prepared in glacial acetic acid:water 60:40 (v/v) was prepared. Five hundred microliter samples were combined with 500 μl glacial acetic acid and 500 μl ninhydrin reagent was added. The sample was subsequently boiled for one hour. One milliliter of analytical grade toluene was then used to extract the chromophore and the absorbance was read at 520 nm.
Concentrations of N-CBZ-Ala-Pro ranging from 4 mM to 100 μM (100 mM citrate, 100 mM NaCl, pH 5.75) were passed through a CPD-Y Acti Disk at a flow rate of 2.0 ml/min. Reaction rates were determined by assaying the appropriate dilutions of the various substrates using the above described proline ninhydrin assay specific of free proline to obtain […] readings below 1.5.
N-CBZ-Ala-Pro (dissolved in 100 mM citrate, 100 mM NaCl, pH 5.75) at a concentration of 200 μM, was passed through the same CPD-Y Acti Disk at flow rates ranging from 2 ml/min to 175 μl/ min. Five milliliters of each specific flow rate were collected and assayed by the proline ninhydrin assay in order to determine the relative percentage of substrate that was hydrolyzed using the various flow rates. In order to characterize the amount of substrate hydrolyzed per unit of time, flow rates are converted to amount of time that the substrate is within the immobilized enzyme matrix (Acti Disk). The amount of time the substrate is within the immobilized enzyme matrix at a given flow rate is shown below in Table 6.
The first order rate constant determined for the N-CBZ-Ala-Pro substrate is applicable only as a reference for comparison to other N-CBZ-dipeptide first order rate constants. N-CBZ-Phe-Ala is the substrate used by Sigma to characterize the activity of CPD-Y at 100 units per milligram, 1 unit can hydrolyze 1 μmol of N-CBZ-Phe-Ala per minute. […]

[1] = flow rate 2 ml/min, 3.45 seconds, pH 5.75, ~25° C.
[2] = 200 μM substrate, varied flow rates
[3] = 200 μM substrate, 2 × 2 ml/min (two passes)
[4] = 200 μM substrate, flow rate 0.25 ml/min, one pass
[5] = 200 μM substrate, flow rate 1.0 ml/min, one pass
[6] = 200 μM substrate, flow rate 2.0 ml/min, one pass
[7] = second flow at 2.0 ml/min, 3.45 seconds

Structure (SMILES): CC(C)C[C@H](NC(=O)[C@@H]1CCCN1C(=O)CNC(=O)OCc1ccccc1)C(=O)N[C@@H](C)C(=O)N1CCC[C@H]1C(=O)O [N-CBZ-Gly-Pro-Leu-Ala-Pro] (Cbz-GPLAP-OH)
Concentration of amino acids released, standard ninhydrin assay [3]: 353.4 µM | Concentration of proline released, proline ninhydrin assay [3]: 195.6 µM | Concentration of amino acids released, standard ninhydrin assay [4]: 384.0 µM | Concentration of proline released, proline ninhydrin assay [4]: 212.5 µM | Concentration of amino acids released, standard ninhydrin assay [5]: 315.9 µM | Concentration of proline released, proline ninhydrin assay [5]: 196.5 µM | Concentration of amino acids released, standard ninhydrin assay [6]: 265.7 µM | Concentration of proline released, proline ninhydrin assay [6]: 197.0 µM | Kinetic constant k for the remaining Pro-Leu bond [7]: 18.39 | Product released in second flow [7]: 87.7 µM

Structure (SMILES): O=C(NCC(=O)N1CCC[C@H]1C(=O)O)OCc1ccccc1 [N-CBZ-Gly-Pro] (Cbz-Gly-Pro-OH)
K^1 min^-1 (first order reaction constant) [1]: 0.160 min⁻¹ | Log S/S-P [1]: 0.004

Structure (SMILES): C[C@H](NC(=O)[C@H](Cc1ccccc1)NC(=O)OCc1ccccc1)C(=O)O [N-CBZ-Phe-Ala]
Concentration of released alanine (20 mM substrate, flow rate 4 ml/minute): 10.49 mM | Rate of digestion (20 mM substrate, flow rate 4 ml/minute, pH 5.75): 41.96 µmol/min

Structure (SMILES): O=C(O)[C@H](Cc1ccccc1)NC(=O)[C@@H]1CCCN1C(=O)OCc1ccccc1 [N-CBZ-Pro-Phe] (Cbz-Pro-Phe-OH)
K^1 min^-1 (first order reaction constant) [1]: 1.480 min⁻¹ | Log S/S-P [1]: 0.037

The next lines start with the values.

K^1 min^-1 (first order reaction constant) [1]: 27.52 min⁻¹ | Log S/S-P [1]: 0.688
Structure (SMILES): CC(C)C[C@H](NC(=O)[C@H](C)NC(=O)OCc1ccccc1)C(=O)O [N-CBZ-Ala-Leu] (Cbz-Ala-Leu-OH)

First-order rate constant (200 μM substrate, converted from seconds^-1): 3.84 min⁻¹ | Log S/S-P (200 μM substrate, flow rate 175 μl/min, 36.4 seconds): 1.541 | Log S/S-P (200 μM substrate, flow rate 350 μl/min, 19.7 seconds): 1.022 | Log S/S-P (200 μM substrate, flow rate 1000 μl/min, 6.90 seconds): .672 | Log S/S-P (200 μM substrate, flow rate 2000 ml/min (so in the source), 3.45 seconds): .560 | First-order rate constant [2]: 4.14 min⁻¹ | Slope of log [S]/[S]-[P] over seconds [2]: 0.030 | Log S/S-P (500 μM substrate, 1 pass at 2000 μl/min, 3.45 sec): .614 | Log S/S-P (500 μM substrate, 2 passes at 2000 μl/min, 6.90 sec): 1.236 | Log S/S-P (500 μM substrate, 3 passes at 2000 μl/min, 10.35 sec): 1.870 | Slope of log [S]/[S]-[P] versus seconds (500 μM substrate, repeated passes at 2000 μl/min): 0.199 | K^1 min^-1 (first order reaction constant) [1]: 22.40 min⁻¹ | Log S/S-P [1]: 0.560 | Velocity (substrate concentration 100 μM, flow rate 2.0 ml/min, pH 5.75): 170 nM/min | Velocity (substrate concentration 200 μM, flow rate 2.0 ml/min, pH 5.75): 344 nM/min | Velocity (substrate concentration 300 μM, flow rate 2.0 ml/min, pH 5.75): 503 nM/min | Velocity (substrate concentration 500 μM, flow rate 2.0 ml/min, pH 5.75): 846 nM/min | Velocity (substrate concentration 1000 μM, flow rate 2.0 ml/min, pH 5.75): 1684 nM/min
Structure (SMILES): C[C@H](NC(=O)OCc1ccccc1)C(=O)N1CCC[C@H]1C(=O)O [N-CBZ-Ala-Pro] (Cbz-Ala-Pro-OH)

K^1 min^-1 (first order reaction constant) [1]: 24.24 min⁻¹ | Log S/S-P [1]: 0.606
Structure (SMILES): O=C(O)CC[C@H](NC(=O)OCc1ccccc1)C(=O)N[C@@H](Cc1ccc(O)cc1)C(=O)O [N-CBZ-Glu-Tyr] (Cbz-Glu-Tyr-OH)
